Results reported in BigSolDB 2.1.

CC1(C)COP(=O)(C(Nc2ccccc2)c2ccccc2)OC1 (stereo not drawn)
Conditions	solubility (mole fraction)
in 1,2-dichloroethane, 278.65 K	0.0102
in 1,2-dichloroethane, 283.65 K	0.0119
in 1,2-dichloroethane, 288.65 K	0.0143
in 1,2-dichloroethane, 293.25 K	0.0169
in 1,2-dichloroethane, 298.15 K	0.0191
in 1,2-dichloroethane, 303.15 K	0.0229
in 1,2-dichloroethane, 308.25 K	0.0265
in 1,2-dichloroethane, 313.15 K	0.031
in 1,2-dichloroethane, 318.15 K	0.035
in 1,2-dichloroethane, 323.15 K	0.0395
in 1,2-dichloroethane, 328.15 K	0.0437
in 1,2-dichloroethane, 333.15 K	0.0526
in 1,4-dioxane, 285.65 K	0.00609
in 1,4-dioxane, 288.65 K	0.00661
in 1,4-dioxane, 293.65 K	0.00739
in 1,4-dioxane, 298.15 K	0.00887
in 1,4-dioxane, 303.15 K	0.0103
in 1,4-dioxane, 308.15 K	0.0121
in 1,4-dioxane, 313.15 K	0.0139
in 1,4-dioxane, 318.15 K	0.0162
in 1,4-dioxane, 323.15 K	0.019
in 1,4-dioxane, 328.15 K	0.023
in THF, 278.65 K	0.00583
in THF, 283.65 K	0.00648
in THF, 288.15 K	0.00764
in THF, 293.25 K	0.00858
in THF, 298.25 K	0.0102
in THF, 303.15 K	0.0117
in THF, 307.95 K	0.0133
in THF, 313.15 K	0.0152
in THF, 318.05 K	0.0169
in THF, 322.65 K	0.0187
in THF, 327.15 K	0.0215
in THF, 332.65 K	0.0237
in acetone, 278.15 K	0.00244
in acetone, 283.75 K	0.00314
in acetone, 288.15 K	0.00432
in acetone, 293.75 K	0.00578
in acetone, 298.65 K	0.00728
in acetone, 302.75 K	0.00898
in acetone, 307.85 K	0.0112
in acetone, 311.75 K	0.0138
in acetone, 317.15 K	0.0171
in acetone, 321.25 K	0.0186
in acetonitrile, 278 K	0.00557
in acetonitrile, 285.65 K	0.0068
in acetonitrile, 288.75 K	0.00746
in acetonitrile, 293.75 K	0.00887
in acetonitrile, 298.25 K	0.0101
in acetonitrile, 303.25 K	0.0119
in acetonitrile, 308.15 K	0.0142
in acetonitrile, 312.75 K	0.0161
in acetonitrile, 317.65 K	0.0192
in acetonitrile, 322.45 K	0.0218
in acetonitrile, 327.75 K	0.0258
in acetonitrile, 335.35 K	0.0328
in benzene, 278.65 K	0.0011
in benzene, 283.65 K	0.00131
in benzene, 288.15 K	0.00162
in benzene, 293.25 K	0.00201
in benzene, 298.25 K	0.00245
in benzene, 303.15 K	0.00301
in benzene, 307.95 K	0.00381
in benzene, 313.15 K	0.00464
in benzene, 318.05 K	0.00519
in benzene, 322.65 K	0.00634
in benzene, 327.15 K	0.00711
in benzene, 332.65 K	0.0093
in benzene, 337.55 K	0.0107
in benzene, 343.15 K	0.0123
in benzene, 347.5 K	0.0149
in chloroform, 278.75 K	0.0352
in chloroform, 283.65 K	0.0382
in chloroform, 288.85 K	0.0403
in chloroform, 293.95 K	0.042
in chloroform, 298.35 K	0.0444
in chloroform, 303.25 K	0.0471
in chloroform, 307.75 K	0.0492
in chloroform, 313.15 K	0.0527
in chloroform, 317.95 K	0.0548
in chloroform, 322.75 K	0.0591
in chloroform, 327.95 K	0.0646
in dichloromethane, 278.65 K	0.00771
in dichloromethane, 283.25 K	0.00994
in dichloromethane, 288.65 K	0.012
in dichloromethane, 293.25 K	0.0152
in dichloromethane, 298.85 K	0.0189
in dichloromethane, 302.95 K	0.0232
in dichloromethane, 308.35 K	0.0274
in dichloromethane, 310.95 K	0.0317
in ethyl acetate, 293.65 K	0.00232
in ethyl acetate, 298.25 K	0.00278
in ethyl acetate, 303.15 K	0.00385
in ethyl acetate, 308.05 K	0.0046
in ethyl acetate, 312.95 K	0.00561
in ethyl acetate, 317.95 K	0.00671
in ethyl acetate, 322.95 K	0.00781
in ethyl acetate, 327.95 K	0.00913
in ethyl acetate, 332.75 K	0.0097
in ethyl acetate, 337.65 K	0.0111
in isopropanol, 278.15 K	0.0004
in isopropanol, 283.15 K	0.0005
in isopropanol, 288.35 K	0.00066
in isopropanol, 293.65 K	0.0008
in isopropanol, 298.15 K	0.00106
in isopropanol, 302.17 K	0.00128
in isopropanol, 307.95 K	0.00177
in isopropanol, 312.55 K	0.00203
in isopropanol, 317.55 K	0.00254
in isopropanol, 321.55 K	0.00318
in isopropanol, 326.65 K	0.00389
in isopropanol, 332.15 K	0.00485
in isopropanol, 337.55 K	0.00626
in isopropanol, 343.15 K	0.00791
in isopropanol, 347.5 K	0.00958
in methanol, 278.15 K	0.00151
in methanol, 283.65 K	0.002
in methanol, 289.15 K	0.00246
in methanol, 293.65 K	0.00312
in methanol, 298.15 K	0.00367
in methanol, 303.15 K	0.0045
in methanol, 307.95 K	0.00541
in methanol, 313.15 K	0.00662
in methanol, 318.15 K	0.00796
in methanol, 323.15 K	0.00984
in tetrachloromethane, 278.15 K	0.00015
in tetrachloromethane, 283.15 K	0.00019
in tetrachloromethane, 288.35 K	0.00026
in tetrachloromethane, 293.65 K	0.00034
in tetrachloromethane, 298.15 K	0.00044
in tetrachloromethane, 302.17 K	0.00051
in tetrachloromethane, 307.95 K	0.00066
in tetrachloromethane, 312.55 K	0.00085
in tetrachloromethane, 317.55 K	0.00103
in tetrachloromethane, 321.55 K	0.00121
in tetrachloromethane, 326.65 K	0.00143
in tetrachloromethane, 332.15 K	0.00203
in tetrachloromethane, 337.15 K	0.00246
